These results are taken from publication PMC8000447, “Assessment of Finite and Infinite Dose In Vitro Experiments in Transdermal Drug Delivery” (Pharmaceutics, 2021).

Several values for one entry are separate records, joined by “and”; a condition that tells them apart may be missing. Identical values can stand only once.

Data set [1] can be described thus: Penetration assay with finite dosage using vertical Franz diffusion cells. It is filed as in vitro ADME, pig. The note with it: 24 h; for % API detected in dermis (D) / % API detected in epidermis (E) / % API detected in receptor fluid (RF) / % API detected in stratum corneum (SC): finite dose 20 µL in propylene glycol, normalized amount, mean ± SD, n = 3; for % API total permeation (Perm): sum of epidermis, dermis and receptor fluid, finite dose 20 µL. The procedure:
(§1) A porcine skin membrane was employed for both the permeation and penetration assays. […] The skin was provided by the Department of Cardiology of the Hospital Clinic (Barcelona, Spain). Dorsal unboiled skin (female white/landrace pigs) was prepared: the bristles were removed (A5 Clipper 78005-500, Oster professional, McMinnville, OR, USA) and dermatomed (Dermatome GA630, Aesculap, Tuttlingen, Germany) at 500 ± 50 μm thick. Thickness was verified with a digital micrometer 40EX (Mahr, Göttingen, Germany). Skin biopsies were cut into discs with 2.5 cm diameter. The skin discs were stored until the experiment (at −20 °C).
OECD guidelines and the published opinions of the Scientific Committee on Cosmetic Products and Non-Food Products (SCCS) were adhered in the penetration protocol. The excised pig skin was placed in a static Franz diffusion cell (Lara Spiral, Couternon, France) (1.86 cm^2 and 3 mL) with the dermis side facing the acceptor chamber. The receptor chamber was filled with receptor fluid. The receptor fluid was the same used in the kinetic assay (Section 2.4). Air bubbles entrapped below the skin were carefully removed and the assembled cells were deposited in a temperature-regulated water bath (Telesystem HP 15, H+P Labortechnik GmgH, Oberschleissheim, Germany) on top of a water-resistant magnetic stirring plate (Variomag 15 and Telemodul, H+P Labortechnik GmgH, Oberschleissheim, Germany). The homogeneity of receptor fluid was maintained by continuously stirring at 700 rpm. The system was thermostatted at 43 ± 1 °C to provide a skin surface temperature of 32 ± 1 °C.
The integrity and permeability of membranes were evaluated with the trans-epidermal water loss (TEWL) value as detailed in Section 2.3.
The finite assay protocol was conducted as described in previous studies. Briefly, 20 µL of each API solution was applied to the skin surface in the donor chamber (n = 3). According to the OECD methodology used, penetration studies were performed for 24 h. After the exposure time, the receptor fluid of all the membranes was collected to transfer to a 5 mL volumetric flask. The remaining API solution was removed from skin surface with specific washing procedure (W). Stratum corneum layers were obtained by tape stripping protocol with adhesive tape (D-Squame, Cuderm Corporation, Dallas, TX, USA) applied under controlled pressure (80 g/cm^2). Viable epidermis (E) and the dermis (D) were separated after heating the skin at 80 °C for several seconds. All samples were extracted with adequate solvent (Table 1) and filtered with a 0.45 µm Nylon filter (Cameo, Sigma-Aldrich, St. Louis, MO, USA) before HPLC quantification (Section 2.6).
The amount permeated in the skin was considered the sum of that in the epidermis, dermis, and receptor fluid. […]

Data set [2] in a line: Kinetic permeation assay with infinite dosage using vertical Franz diffusion cells. In kind it is in vitro ADME, pig. The note with it: infinite dose 300 µL in propylene glycol (DS 3%, IBU 1%, LIDO 2%, CAF 1% w/v); for Papp / AUC / Cmax: female, white/landrace, pig; for Papp / AUC / Cmax / J (flux) / AUC (%): mean ± SD; for Papp / J (flux): n = 3; for Papp: read-out: Kp (permeability coefficient) (converted); for AUC / Cmax: receptor fluid; for AUC: read-out: AUC (area under the curve); for Cmax: read-out: Cmax (maximum concentration); for Kin. of release (best-fitting kinetic model): up to 30 h; for AUC (%): percentage release. The procedure: as §1
The kinetic diffusion assay was conducted using a Vision Microette (Vision G2 V14.1) with an Autosampler and an Autofill Collector (Hanson Research, Chatworths, CA, USA) automated vertical diffusion cell (7 mL acceptor chamber, and surface area of application of 1.77 cm^2).
The receptor fluid (RF) used was aqueous buffer solution of PBS in the case of DS, IBU, and CAF, and NaH2PO4 (0.05 M, pH = 7) in the case of LIDO. Receptor fluid was continuously stirred with magnetic beads at 700 rpm to keep the contents of the receptor chamber homogenous. The system was thermostatted at 43 ± 1 °C to provide a skin surface temperature of 32 ± 1 °C.
Once TEWL was measured, 300 μL (infinite dose) of the four active solutions was applied in triplicate to each Franz cell (Hanson Research, Chatworths, CA, USA) and donor compartment was sealed to donor chamber to avoid evaporation. Samples (700 µL) were collected at specific times (15 min, 30 min, 1 h, 2 h, 4 h, 6 h, 10 h, 20 h, and 30 h), and automatically passed into the corresponding vial. The same volume of receptor fluid was automatically replaced with fresh solution at each sampling. The content of receptor samples was diluted in 2 mL graduated flasks and filtered with a 0.45 µm nylon filter (Cameo, Sigma-Aldrich, St Louis, MO, USA) previous analyzed with a high-performance liquid chromatography-diode array detector (HPLC-DAD) (Section […]). The kinetics of penetration were determined, simulating the drug elimination in the body.
The cumulative amount of the active pharmaceutical ingredient (API) per surface area (Qn, µg/cm^2) was obtained for each replicate cell to calculate the release of the four APIs. The equation used to determine the cumulative amount of API in the receptor fluid was the following Equation (1):(1) Qn= Cn×Vc+ ∑i=1n−1Ci×Vs/A where Qn is the cumulative amount of API released at time n (μg/cm^2); Cn is the concentration of active ingredient in the sample (μg/mL); Vc is the volume of the vertical diffusion cell; ∑i=1n−1 Ci is the sum of the concentrations of API (µg/mL) determined at sampling intervals 1 through n − 1; Vs is the sample volume and A is the surface area of the sample.
The percentage of cumulative amount of API permeated over time was calculated by the following Equation (2):(2) % Release API= Qn/Total amount of API applied×100
Experimental data of cumulative amount (Qn and % Release API) were plotted versus time or its square root ( t ) to obtain the API absorption and penetration kinetics. Different mathematical model (Zero-order, First-order and Higuchi) were evaluated with the non-linear regression software STATGRAPHICS plus 5 (Statgraphics Technologies, Inc., The Plains, VA, USA). The best-fitting model was selected according to the highest correlation coefficient value (r^2) and it was possible to calculate other parameters, such as flux (J), the permeability coefficient (Kp), lag time (Tl), the maximum concentration (Cmax), the maximum time (tmax), and the area under the curve (AUC).

As usually defined, the AUC is the area under the concentration-time curve, a measure of exposure. On to `O=C(O)Cc1ccccc1Nc1c(Cl)cccc1Cl` [Diclofenac sodium], for which, in data set [1], the “% API detected in dermis (D)” value is on record as 1.41 ± 0.49%, the “% API detected in epidermis (E)” value amounted to 5.54 ± 2.41%, the “% API detected in receptor fluid (RF)” value was 8.53 ± 3.99% and the “% API detected in stratum corneum (SC)” value came to 8.08 ± 2.62%. In data set [1], the “% API total permeation (Perm)” value is recorded as 15.49 ± 6.89%. Moreover, in data set [2], the Papp is 0.0442 ×10⁻⁶ cm/s, the AUC amounted to 168 ± 38.5 µg·h/mL, the Cmax was found to be 38100 ± 10000 ng/mL and the “J (flux)” value stood at 3.94 ± 0.77 µg/cm^2/h. In data set [2], the “Kin. of release (best-fitting kinetic model)” value (from here on “Kin. of release”) was “Ord 0” and the “AUC (%)” value is given as 15.43 ± 4.41%.

As to `CC(C)Cc1ccc(C(C)C(=O)O)cc1` (stereo not drawn) [Ibuprofen, ibuprofen], in data set [1], the “% API detected in dermis (D)” value was 2.79 ± 0.37%; the “% API detected in epidermis (E)” value is 2.92 ± 0.61%; the “% API detected in receptor fluid (RF)” value was 53% and 52.68 ± 5.01%; the “% API detected in stratum corneum (SC)” value was 11% and 11.06 ± 1.15%. For the same molecule, in data set [1], the “% API total permeation (Perm)” value is reported as 58.39 ± 6.32%. Besides, in data set [2], the Papp is 0.0694 ×10⁻⁶ cm/s, the AUC amounted to 163 ± 28.3 µg·h/mL, the Cmax turned out to be 66700 ± 16100 ng/mL and the “J (flux)” value turned out to be 2.60 ± 0.69 µg/cm^2/h. Also, in data set [2], the “Kin. of release” value is recorded as “Ord 0” and the “AUC (%)” value is reported as 38.97 ± 4.56 %.

As to `Cn1c(=O)c2c(ncn2C)n(C)c1=O` [Caffeine, caffeine], in data set [1], the “% API detected in dermis (D)” value came out at 0.55 ± 0.09%, the “% API detected in epidermis (E)” value worked out at 0.55 ± 0.23%, the “% API detected in receptor fluid (RF)” value is listed as 3.62 ± 1.75% and the “% API detected in stratum corneum (SC)” value turned out to be 3.11 ± 2.33%. Besides, the “% API total permeation (Perm)” value in data set [1] came to 4.72 ± 1.87%. In data set [2], the Papp is 0.0242 ×10⁻⁶ cm/s, the AUC turned out to be 72.8 ± 32.6 µg·h/mL, the Cmax came out at 13900 ± 1590 ng/mL and the “J (flux)” value came out at 0.86 ± 0.07 µg/cm^2/h. Also, in data set [2], the “Kin. of release” value was “Ord 0” and the “AUC (%)” value came out at 4.55 ± 3.31%.
